Experimental data published in US6497900B2, “Effervescent base” (priority 1997, dated 2002).

Experiment: Breakdown of acid-sensitive active substances in the effervescent system
Format: physicochemical
Details: in the effervescent system according to the invention, also in a stress situation

- tendency of active substance to break down and form decomposition products: substantially lower tendency
SMILES: NC(N)=Nc1nc(CSCCC(N)=NS(N)(=O)=O)cs1 [famotidine]
